Measurements from paper PMC7876048, “Mutant-selective degradation by BRAF-targeting PROTACs” (Nature Communications, 2021).
“Also recorded” adds a separate entry of the source.

Key:
[1] = target: T1, BRAF^G466V (H1666 cells, heterozygous, Class 3) (Homo sapiens, UniProt P15056, G466V); assay: BRAF degradation by immunoblot in H1666 cells; assay type: cell-based
T1 construct: endogenous in cells; host or cells: H1666
Description: (§1) Cells were plated in 6 well dishes (5 × 10^5–8 × 10^5 cells) and allowed to attach overnight. […] The plates were then placed on ice and washed 1x with chilled PBS and lysed in buffer containing 25 mM Tris-HCl [pH 7.4], 0.25% sodium deoxycholate, 150 mM NaCl, 1% Triton X-100, supplemented with protease inhibitors (1x Roche protease inhibitor cocktail) and phosphatase inhibitors (10 mM NaF, 1 mM Na3OV4, and 20 mM β-glycerophosphate). Lysates were then cleared at 21,000 g for 10 min at 4 °C. Protein concentrations of the supernatants were then quantified using a Pierce BCA Protein Assay. 12–40 µg of protein were separated using a gradient (4–20%) Criterion TGX precast gel and transferred unto a nitrocellulose membrane. The membranes were then blocked in 5% non-fat milk in TBST (Tris-buffered Saline with Tween 20) for 1 h before probing with the indicated primary antibody overnight. Membranes were imaged using Bio-Rad Image Lab software using ECL prime detection reagent (GE Healthcare, RPN2232 or ThermoScientific, 34095).
(§2) Western blot data was quantified by using the band feature in Image Lab, and values were averaged and analyzed in GraphPad Prism. DC50 and DMAX values were fitted using a three parameter [inhibitor] versus response and reported directly from the Prism output. Mean ± SD and unpaired t-tests were performed in GraphPad Prism.

[2] = system: CAL-12-T cells (Class 3, BRAF^G466V); assay: Cell proliferation (MTS) assay; assay type: cell-based; conditions: 5 days
Description: […] 2 mg/ml MTS (Promega Corp., Madison, WI: G5421) and 25 μM phenazine methosulfate (Sigma, St. Louis, MO) were combined 19:1 and then added to cells (1 volume combined reagent: 5 volumes medium) and incubated for 1–3 h. Mitochondrial reduction of MTS to the formazan derivative was monitored by measuring the medium’s absorbance at 480 nm using a Perkin Elmer Envision Plate reader.

BRAF V600E = BRAF V600E (Homo sapiens, UniProt P15056, V600E); assay: Elisa kinase inhibition assay (Carna Biosciences); assay type: biochemical; parameters: purchased Carna Biosciences; conditions: Km ATP, duplicate
Description: Kinase assays were performed by Carna Biosciences by their protocol in duplicate using Km amounts of ATP calculated for each kinase.

p-ERK (CAL-12-T cells) = assay: p-ERK inhibition by immunoblot in CAL-12-T cells; assay type: cell-based
Description: as §1, §2

[3] = system: BRAF (SK-MEL-239 cells, heterozygous BRAF^V600E); assay: BRAF degradation by immunoblot in SK-MEL-239 cells; assay type: cell-based
Description: as §1, §2

[4] = target: T2, BRAF^G466V (CAL-12-T cells, homozygous, Class 3) (Homo sapiens, UniProt P15056, G466V); assay: BRAF degradation by immunoblot in CAL-12-T cells; assay type: cell-based
T2 construct: endogenous in cells; host or cells: CAL-12-T
Description: as §1, §2

[5] = system: BRAF^WT : Cullin-2 association (NIH3T3 cells); assay: V5-BRAF immunoprecipitation, Cullin 2 association; assay type: cell-based; conditions: MEK inhibitor (1 µM cobimetinib, 2 h) pretreated NIH3T3 cells
Description: Doxycycline-induced NIH3T3 cells or 293 T-Rex cells that express indicated BRAF isoform were seeded in 10 cm dishes overnight. […] Cells were then placed on ice, washed with ice-cold 1X PBS, and lysed in 500 µL modified 1X lysis buffer (50 mM Tris-HCl, pH 7.4, 0.15 M NaCl, 1 mM EDTA, 1% NP40, 10% glycerol) containing 5 mM 1,10-phenanthroline monohydrate, 10 mM N-ethylmaleimide, 20 µM PR-619, and 1X protease inhibitor cocktail (Roche). Lysates were spun down at 14,000 × g at 4 °C for 10 min. Equal amounts of lysate was aliquoted onto 20 µL (bed volume) of anti-V5-beads (Sigma, A7345). V5-containing proteins were immunoprecipitated from lysates for 2 h at 4 °C with gentle rotation, after which samples were spun down at 6000 × g at 4 °C for 2 min and the beads were washed 4 times with DPBS. Beads were resuspended in 1X lithium dodecyl sulfate (LDS) sample buffer containing 5% 2-mercaptoethanol (ß-ME). Immunoprecipitated protein was eluted off the beads by heating at 95 °C for 5 min and the supernatant was run on an SDS-PAGE gel and evaluated for the presence of immunoprecipitated V5-tagged proteins, as well as Cullin 2. Input refers to the normalized input lysate loaded onto V5-sepharose beads.

[6] = target: T3, V5-tagged BRAF^WT (NIH3T3 cells) (Homo sapiens, UniProt P15056); assay: V5-BRAF degradation by immunoblot in inducible NIH3T3 cells; assay type: cell-based
T3 construct: expressed in transfected cells; host or cells: NIH3T3 (mouse fibroblasts), doxycycline-inducible expression
Description: as §1, §2

[7] = target: T4, NanoLuc-BRAF^V600E : HaloTag-VHL (HEK293T cells) (Homo sapiens, UniProt P15056+P40337, V600E); assay: NanoBRET ternary complex assay; assay type: cell-based; conditions: cells expressing BRAF^V600E, 3 h
T4 construct: Full-length BRAF (WT and V600E) was cloned into the pNLF1-C [CMV/Hygro] vector; host or cells: HEK 293 T, transient co-transfection
Description: (§3) Full-length BRAF (WT and V600E) was cloned into the pNLF1-C [CMV/Hygro] vector. HEK 293 T cells were seeded into 6 well dishes (~75% confluent) and co-transfected with HaloTag-VHL (Promega; N273A) and C-terminal nanoLUC-tagged BRAF. Transfection was performed using a ratio of 1:2 DNA to Lipofectamine 2000. After 24 h, 1 × 10^4 cells were seeded into white 96 well plates (Costar Cat# 3610) in Opti-MEM™ I Reduced Serum Medium supplemented with 4% FBS and […] HaloTag NanoBRET 618 ligand or DMSO. The next day, the cells were pre-treated with 2 μM MG-132 for 1 h then treated with indicated amount of drug for 3 h. 6X NanoBRET Nano-Glo Substrate in Opti-MEM was then added to each well and the plate was read using a Perkin Elmer Envision. Dual filtered luminescence was measured with a 430 nm (donor, […]) and a 615 nm filter (acceptor, […]). Background corrected (cells without HaloTag 618 ligand) nanoBRET ratios were calculated to determine intracellular ternary complex formation.

[8] = target: T5, NanoLuc-BRAF^WT : HaloTag-VHL (HEK293T cells) (Homo sapiens, UniProt P15056); assay: NanoBRET ternary complex assay; assay type: cell-based; conditions: cells expressing BRAF^WT, concentrations as high as 10 μM, 3 h
T5 construct: Full-length BRAF (WT and V600E) was cloned into the pNLF1-C [CMV/Hygro] vector; host or cells: HEK 293 T, transient co-transfection
Description: as §3

T3 sequence (P15056 whole entry): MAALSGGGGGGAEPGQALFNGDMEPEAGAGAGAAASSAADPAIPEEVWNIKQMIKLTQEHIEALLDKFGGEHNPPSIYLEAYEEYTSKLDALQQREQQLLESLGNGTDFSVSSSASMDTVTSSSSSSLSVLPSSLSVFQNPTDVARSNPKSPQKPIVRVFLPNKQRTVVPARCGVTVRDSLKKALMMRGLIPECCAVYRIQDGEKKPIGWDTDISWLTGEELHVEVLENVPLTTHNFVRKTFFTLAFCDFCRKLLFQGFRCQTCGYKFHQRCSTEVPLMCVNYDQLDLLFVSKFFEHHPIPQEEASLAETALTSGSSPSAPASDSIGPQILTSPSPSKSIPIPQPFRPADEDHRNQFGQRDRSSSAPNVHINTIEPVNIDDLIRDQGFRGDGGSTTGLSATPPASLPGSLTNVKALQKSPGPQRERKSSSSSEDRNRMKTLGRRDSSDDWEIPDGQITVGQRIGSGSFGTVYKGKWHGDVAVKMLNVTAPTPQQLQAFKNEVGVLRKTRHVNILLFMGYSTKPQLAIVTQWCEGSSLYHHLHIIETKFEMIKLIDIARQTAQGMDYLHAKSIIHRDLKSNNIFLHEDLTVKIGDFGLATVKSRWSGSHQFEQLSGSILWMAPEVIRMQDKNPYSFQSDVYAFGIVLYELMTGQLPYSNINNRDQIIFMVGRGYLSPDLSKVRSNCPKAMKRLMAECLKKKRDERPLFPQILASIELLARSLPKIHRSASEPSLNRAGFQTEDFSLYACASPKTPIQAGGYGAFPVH
T1 sequence (P15056 2-766 G466V): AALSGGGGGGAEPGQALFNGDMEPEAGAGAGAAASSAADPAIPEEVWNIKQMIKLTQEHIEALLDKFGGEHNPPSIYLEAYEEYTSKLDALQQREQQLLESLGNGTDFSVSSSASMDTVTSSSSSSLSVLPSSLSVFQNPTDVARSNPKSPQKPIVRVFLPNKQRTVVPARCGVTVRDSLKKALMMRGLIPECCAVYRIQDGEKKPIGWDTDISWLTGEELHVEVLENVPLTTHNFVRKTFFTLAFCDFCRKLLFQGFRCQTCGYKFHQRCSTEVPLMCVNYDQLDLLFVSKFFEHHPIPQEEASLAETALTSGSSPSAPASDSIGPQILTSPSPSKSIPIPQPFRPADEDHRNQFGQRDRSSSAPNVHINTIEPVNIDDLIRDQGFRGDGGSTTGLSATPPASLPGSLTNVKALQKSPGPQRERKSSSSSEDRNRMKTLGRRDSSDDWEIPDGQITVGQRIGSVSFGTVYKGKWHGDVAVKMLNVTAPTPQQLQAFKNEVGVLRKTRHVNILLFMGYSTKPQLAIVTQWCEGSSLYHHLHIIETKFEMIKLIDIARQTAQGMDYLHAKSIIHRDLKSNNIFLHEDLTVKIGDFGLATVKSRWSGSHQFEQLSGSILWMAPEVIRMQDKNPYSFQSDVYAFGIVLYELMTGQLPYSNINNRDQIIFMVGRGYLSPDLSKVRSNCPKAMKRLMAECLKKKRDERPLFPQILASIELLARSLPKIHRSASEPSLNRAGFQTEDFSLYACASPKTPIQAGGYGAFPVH
T2 sequence (P15056 whole entry G466V): as the sequence (P15056 whole entry) above, with G466V counted along it
T4 sequence (P15056 whole entry V600E): as the sequence (P15056 whole entry) above, with V600E counted along it
T4 sequence (P40337 whole entry): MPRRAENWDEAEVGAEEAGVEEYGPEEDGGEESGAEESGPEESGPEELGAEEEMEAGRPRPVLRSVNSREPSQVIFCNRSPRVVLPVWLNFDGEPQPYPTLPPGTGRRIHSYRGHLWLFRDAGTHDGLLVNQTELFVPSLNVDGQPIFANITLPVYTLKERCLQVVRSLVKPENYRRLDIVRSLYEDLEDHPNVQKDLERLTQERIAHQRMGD
T4 sequence (Q15369 whole entry partner): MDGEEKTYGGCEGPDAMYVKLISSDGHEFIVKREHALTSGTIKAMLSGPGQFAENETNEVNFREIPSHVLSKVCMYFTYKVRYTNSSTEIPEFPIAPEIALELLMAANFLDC
T4 sequence (Q15370 whole entry partner): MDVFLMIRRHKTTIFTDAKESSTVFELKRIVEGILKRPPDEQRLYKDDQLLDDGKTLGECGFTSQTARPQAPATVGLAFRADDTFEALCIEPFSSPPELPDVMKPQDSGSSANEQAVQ
BRAF V600E, sequence (P15056 whole entry V600E): as the sequence (P15056 whole entry) above, with V600E counted along it

DC50 [1]: 29 nM | Dmax ([1]; NCI-H1666): > 80% | IC50 (BRAF V600E): 24.4 nM | DC50 [4]: 23 nM | Dmax [4]: > 90% | PROTAC-mediated BRAF^WT degradation ([6]; 1 µM PD0325901 pre-treatment 3 h, SJF-0628 1 μM 20 h): ~ 80% | degradation of BRAF^WT by the PROTAC ([6]; 1 µM SCH772984 pre-treatment 3 h, SJF-0628 20 h): ~ 90% | expression of WT RAF family members ([6]; doxycycline-inducible V5-BRAF, no pre-treatment): spared BRAF^WT, ARAF, and CRAF | BRET signal [7]: an increase in BRET signal | BRET signal [8]: no observed increase
SMILES: CCCS(=O)(=O)Nc1ccc(F)c(C(=O)c2c[nH]c3ncc(-c4ccc(N5CCN(CC(=O)NC(C(=O)N6CC(O)CC6C(=O)NCc6ccc(-c7scnc7C)cc6)C(C)(C)C)CC5)cc4)cc23)c1F (centres unmarked) [SJF-0628]
inhibition of cell growth / effect on cell viability [2]: minimal inhibition of cell growth; also recorded: minimal effect on cell viability | inhibition of p-ERK (p-ERK (CAL-12-T cells)): > 70% | BRAF degradation [3]: minimal BRAF degradation | increase in PROTAC-induced Cullin-2 association with BRAF^WT [5]: 4 fold
